Test results reported in ChEMBL document CHEMBL3124887, “Synthesis and anti-inflammatory activity of aromatic glucosinolates” (2013).

How the values were obtained:
Assay type in all cases: functional
THP-1 [1] = experiment: Antiinflammatory activity in human THP1 cells assessed as inhibition of LPS-induced TNF-alpha release measured as TNF-alpha level at 0.1 uM after 4hrs by ELISA relative to control
THP-1 [2] = experiment: Antiinflammatory activity in human THP1 cells assessed as inhibition of LPS-induced TNF-alpha release measured as TNF-alpha level at 0.5 uM after 4hrs by ELISA relative to control
THP-1 [3] = experiment: Antiinflammatory activity in human THP1 cells assessed as inhibition of LPS-induced TNF-alpha release measured as TNF-alpha level at 5 uM after 4hrs by ELISA relative to control
THP-1 [4] = experiment: Antiinflammatory activity in human THP1 cells assessed as inhibition of LPS-induced TNF-alpha release measured as TNF-alpha level at 10 uM after 4hrs by ELISA relative to control
THP-1 [5] = experiment: Antiinflammatory activity in human THP1 cells assessed as inhibition of LPS-induced TNF-alpha release measured as TNF-alpha level at 15 uM after 4hrs by ELISA relative to control
THP-1 [6] = experiment: Antiinflammatory activity in human THP1 cells assessed as inhibition of LPS-induced TNF-alpha release measured as TNF-alpha level at 1 uM after 4hrs by ELISA relative to control

SMILES	Activity (THP-1 [1]) [pg/mL]	Activity (THP-1 [2]) [pg/mL]	Activity (THP-1 [3]) [pg/mL]	Activity (THP-1 [4]) [pg/mL]	Activity (THP-1 [5]) [pg/mL]	Activity (THP-1 [6]) [pg/mL]
O=S(=O)([O-])O/N=C(\S[C@@H]1O[C@H](CO)[C@@H](O)[C@H](O)[C@H]1O)c1ccccc1.[K+]	231.15	194.44	166.58	144.15	103.57	–
O=S(=O)([O-])O/N=C(/Cc1ccccc1)S[C@@H]1O[C@H](CO)[C@@H](O)[C@H](O)[C@H]1O.[K+]	275.48	–	–	206.65	201.87	248.4
O=S(=O)([O-])O/N=C(/CCc1ccccc1)S[C@@H]1O[C@H](CO)[C@@H](O)[C@H](O)[C@H]1O.[K+]	–	–	115.25	96.86	74.76	138.43
O=S(=O)([O-])O/N=C(/C=C/c1ccccc1)S[C@@H]1O[C@H](CO)[C@@H](O)[C@H](O)[C@H]1O.[K+]	–	–	–	122.91	79.23	149.06
COc1ccc(/C(=N/OS(=O)(=O)[O-])S[C@@H]2O[C@H](CO)[C@@H](O)[C@H](O)[C@H]2O)cc1OC.[K+]	–	161.76	128.21	93.1	69.2	144.57
O=S(=O)([O-])O/N=C(\S[C@@H]1O[C@H](CO)[C@@H](O)[C@H](O)[C@H]1O)c1cccc(Cl)c1Cl.[K+]	–	–	162	157.09	114.17	–
O=S(=O)([O-])O/N=C(\S[C@@H]1O[C@H](CO)[C@@H](O)[C@H](O)[C@H]1O)c1ccc(Br)cc1.[K+]	165.27	–	173.17	122.04	111.1	–
Oc1cc(O)c2c(c1)OC(c1ccc(O)c(O)c1)C(O)C2 (stereo unspecified) [CATECHIN]	–	303.98	282.65	–	255.94	–
